The numbers were not newly measured in PMC9103764, “Pilot Study on Acute Effects of Pharmacological Intraperitoneal L-Homoarginine on Homeostasis of Lysine and Other Amino Acids in a Rat Model of Isoprenaline-Induced Takotsubo Cardiomyopathy” (International Journal of Molecular Sciences, 2022), which cites them from elsewhere.

One data set relates to serotonin receptor 4. Particulars: cited from earlier work.
On the set-up of data set [1]: method as in PMID 9127274. The following applies: rat; cited from earlier work.

Take `NCCCC[C@H](N)C(=O)O` [Lys, L-lysine]: in the data set with serotonin receptor 4, the “action at serotonin receptor 4” value is on record as “partial serotonin receptor 4 antagonist”. Regarding `CC(C)NCC(O)c1ccc(O)c(O)c1` (centres unmarked) [isoprenaline], the elimination half-life in data set [1] is reported as 10 min.
